Structures can show the parent of a compound that is named as a salt.
Tests used:
Format in all cases: physicochemical
[1] = Solubility estimates in different solvents; conditions: thermodynamic from solid, ambient temperature, visual estimate
Method: A weighed sample (typically about 20 mg) of Compound I form A was treated with aliquots of the test solvent at ambient temperature. The aliquot volumes were typically 250 μL. Periodically, the mixture was sonicated between additions to facilitate dissolution. Complete dissolution of the test material was determined by visual inspection. Solubilities were estimated from these experiments based on the total solvent used to provide complete dissolution. […] If dissolution occurred after the last aliquot was added then solubility is expressed as “greater than or equal to” (≧). The solubility values for Compound I (Table 4) have been rounded to the nearest whole number. The true equilibrium solubilities for the compound may be different than the values provided here because of the use of solvent aliquots that were too large or due to a slow rate of dissolution.

[2] = Moisture sorption/desorption analysis; conditions: for solid form of post moisture sorption/desorption sample by XRPD: after 5%-95%-5% RH cycle; for molecules of water present for every molecule of compound: at 95% RH, calculated from desorption weight change and molecular weight; for Weight Change: 25 C
Method: Moisture sorption/desorption data were collected on a VTI SGA-100 Vapor Sorption Analyzer. Sorption and desorption data were collected over a range of 5% to 95% relative humidity (RH) at 10% RH intervals under a nitrogen purge. Sodium chloride (NaCl) and polyvinylpyrrolidone (PVP) were used as the calibration standards. Equilibrium criteria used for analysis were less than 0.0100% weight change in 5 minutes, with a maximum equilibration time of 180 minutes if the weight criterion was not met. The plotted data that contain the percent weight change values at various RH intervals are relative to the initial weight of the sample. The plotted data have not been corrected for the initial moisture content. However, the weight gain data provided in the tables for the various relative humidity ranges are calculated using the sample weight at the beginning of the particular RH event as the initial weight. In particular, the equilibration event wt. % change from initial wt. to 5% RH was calculated as [(wt at 5% RH−initial wt.)/initial wt.]*100; and the sorption event wt. % change from 5% RH to 95% RH was calculated as [(wt. at 95% RH−wt at 5% RH)/wt at 5% RH]*100; and the desorption event wt. % change from 95% RH to 5% RH was calculated as [(wt. at 5% RH−wt at 95% RH)/wt at 95% RH]*100. This type of analysis permits direct comparison of the experimental weight changes to the theoretical values predicted for the inter-conversion of anhydrates to hydrated forms.

[3] = Relative humidity (RH) stress of solids, XRPD; conditions: for XRPD Pattern after RH stress: ambient, 21 d
Method: Relative Humidity (RH) Stress: Open vials containing solid samples were placed inside chambers containing saturated salt solutions along with a small amount of the undissolved salt. The chambers were sealed and allowed to stand at ambient temperature for several weeks. Samples were analyzed by X-ray powder diffraction (XRPD) immediately after removing the sample from the RH chamber. The RH values for these salt solutions were obtained from an ASTM standard. See a) “Preparation and Use of Relative Humidity Chambers” SSCI Method MTD 032.01 Mar. 3, 2003; and b) “Standard Practice for Maintaining Constant Relative Humidity by Means of Aqueous Solutions” ASTM Standard E 104-02 (2002).

[4] = Slurry interconversion studies in methanol; conditions: room temperature; for XRPD Result after slurry: slurry time 5 days
Method: Slurry Experiments: Enough Compound I was added to a given solvent so that undissolved solids were present. The mixture was then agitated in a sealed vial at ambient temperature using either an orbital shaker or a rotating wheel. After several days the solids were isolated by vacuum filtration and allowed to dry at ambient temperature in the fume hood with the cap for the sample vial loosened.
In order to determine the relative stability of the polymorphs Compound I form A was slurried in separate experiments with roughly equal amounts of forms B, C and E in methanol at room temperature. After 12 days the solids were isolated and form A was recovered as the exclusive solid phase (Table 6). In addition to these experiments, slurries of forms B, C and D in the absence of other solid phases provided form A when slurried for 5 days in methanol at room temperature. […] It should be noted that the hydration states of these solid phases may be different for the different forms, which precludes an analysis of the true thermodynamic stability ordering through slurry experiments.

[5] = Thermal analysis (TGA/DSC), thermal stability
Method: Thermogravimetric analyses (TGA) were carried out on a TA Instruments 2950 thermogravimetric analyzer. The calibration standards were nickel and Alumel™. Samples were placed in an aluminum sample pan, inserted into the TG furnace, and accurately weighed. The samples were heated in a stream of nitrogen at a rate of 10° C./min. The temperature of the furnace was equilibrated at 25° C. prior to the analysis of the samples. The percent mass loss values provided in the tables are rounded to the nearest 0.1%.
Differential scanning calorimetry (DSC) analyses were carried out on a TA Instruments differential scanning calorimeter 2920. Accurately weighed samples were placed in either crimped pans, crimped pans with manual pinhole or uncrimped pans to allow for pressure release. Each sample was heated under nitrogen at a rate of 10° C./min to 350° C. Indium metal was used as the calibration standard. Temperatures are reported at the transition maxima and reported to one decimal place, and the integrated events are expressed in J/g and rounded to the nearest whole number.

[6] = desorption, 95% RH to about 5% RH, Tables 2A, 2B (relative to weight at start of the event)
[7] = equilibration, initial weight to about 5% RH, Tables 2A, 2B (relative to weight at start of the event)
[8] = sorption, 5% RH to about 95% RH, Tables 2A, 2B (relative to weight at start of the event)
[9] = after desorption at about 5% RH, Tables 2C-2F (values fit change relative to initial weight)
[10] = after equilibration at about 5% RH, Tables 2C-2F (values fit change relative to initial weight)
[11] = after sorption at about 95% RH, Tables 2C-2F (values fit change relative to initial weight)

N#Cc1ccccc1Cn1c(N2CCC[C@@H](N)C2)ncc(F)c1=O [Form A, tartrate salt of 2-[2-(3-(R)-amino-piperidin-1-yl)-5-fluoro-6-oxo-6H-pyrimidin-1-ylmethyl]-benzonitrile]
solubility ([1]; organic solvent or mixture, 1,4-dioxane): < 3000 µg/mL
solubility ([1]; organic solvent or mixture, acetone): < 4000 µg/mL
solubility ([1]; organic solvent or mixture, acetonitrile): < 3000 µg/mL
solubility ([1]; organic solvent or mixture, chloroform): < 4000 µg/mL
solubility ([1]; organic solvent or mixture, dichloromethane): < 3000 µg/mL
solubility ([1]; organic solvent or mixture, diisopropyl ether): < 3000 µg/mL
solubility ([1]; organic solvent or mixture, dimethylformamide): ≥ 81000 µg/mL
solubility ([1]; organic solvent or mixture, ethanol): < 3000 µg/mL
solubility ([1]; organic solvent or mixture, ethyl acetate): < 3000 µg/mL
solubility ([1]; organic solvent or mixture, hexafluoroisopropanol): ≥ 80000 µg/mL
solubility ([1]; organic solvent or mixture, hexanes): < 3000 µg/mL
solubility ([1]; organic solvent or mixture, isopropanol): < 3000 µg/mL
solubility ([1]; organic solvent or mixture, isopropyl acetate): < 3000 µg/mL
solubility ([1]; organic solvent or mixture, methanol): ≥ 16000 µg/mL
solubility ([1]; organic solvent or mixture, methyl ethyl ketone): < 3000 µg/mL
solubility ([1]; organic solvent or mixture, nitromethane): < 3000 µg/mL
solubility ([1]; organic solvent or mixture, tetrahydrofuran): < 3000 µg/mL
solubility ([1]; organic solvent or mixture, toluene): < 3000 µg/mL
solubility ([1]; organic solvent or mixture, trifluoroethanol): ≥ 81000 µg/mL
solubility ([1]; water): ≥ 41000 µg/mL
hydrate type from moisture sorption/desorption analysis [2]: variable hydrate
solid form of post moisture sorption/desorption sample by XRPD [2]: form A
molecules of water present for every molecule of compound [2]: approximately 1
Weight Change [2, 6]: −3.77%
Weight Change [2, 7]: −1.44%
initial weight loss from ambient conditions to 5% RH ([2]; moisture sorption/desorption): approximately 1.4%
weight gain between 5% and 95% RH ([2]; moisture sorption/desorption): about 4.00%
Weight Change [2, 8]: 4.00%
XRPD Pattern after RH stress ([3]; 58% RH stress): Form A
XRPD Pattern after RH stress ([3]; 75% RH stress): Form A
XRPD Pattern after RH stress ([3]; 84% RH stress): Form A
phase change upon RH stress ([3]; various RH conditions, room temperature, several weeks): none of these samples had undergone a phase change
relative stability of polymorphs [4]: more stable than form B, C, D, or E
XRPD Pattern after heating ([5]; TGA to 150° C. & recovered): Form A
thermally stable up to ([5]; thermal analysis): about 200 °C

N#Cc1ccccc1Cn1c(N2CCC[C@@H](N)C2)ncc(F)c1=O [Form B, tartrate salt of 2-[2-(3-(R)-amino-piperidin-1-yl)-5-fluoro-6-oxo-6H-pyrimidin-1-ylmethyl]-benzonitrile]
solid form of post moisture sorption/desorption sample by XRPD [2]: form C
Weight Change [2, 6]: −6.30%
Weight Change [2, 7]: −0.50%
initial weight loss from ambient conditions to 5% RH ([2]; moisture sorption/desorption): approximately 0.5%
weight gain between 5% and 95% RH ([2]; moisture sorption/desorption): 6.6%
Weight Change [2, 8]: 6.64%
XRPD Result after slurry [4]: Form A

N#Cc1ccccc1Cn1c(N2CCC[C@@H](N)C2)ncc(F)c1=O [Form C, tartrate salt of 2-[2-(3-(R)-amino-piperidin-1-yl)-5-fluoro-6-oxo-6H-pyrimidin-1-ylmethyl]-benzonitrile]
solid form of post moisture sorption/desorption sample by XRPD [2]: form C
Weight Change [2, 9]: −0.899%
Weight Change [2, 10]: −0.873%
Weight Change [2, 11]: 4.744%
molecules of water present for every molecule of compound [2]: approximately 1.5
initial weight loss from ambient conditions to 5% RH ([2]; moisture sorption/desorption): approximately 0.9%
weight gain between 5% and 95% RH ([2]; moisture sorption/desorption): 5.7%
XRPD Result after slurry [4]: Form A

N#Cc1ccccc1Cn1c(N2CCC[C@@H](N)C2)ncc(F)c1=O [Form D, tartrate salt of 2-[2-(3-(R)-amino-piperidin-1-yl)-5-fluoro-6-oxo-6H-pyrimidin-1-ylmethyl]-benzonitrile]
XRPD Result after slurry [4]: Form A

N#Cc1ccccc1Cn1c(N2CCC[C@@H](N)C2)ncc(F)c1=O [Form E, tartrate salt of 2-[2-(3-(R)-amino-piperidin-1-yl)-5-fluoro-6-oxo-6H-pyrimidin-1-ylmethyl]-benzonitrile]
solid form of post moisture sorption/desorption sample by XRPD [2]: form C
Weight Change [2, 9]: 0.098%
Weight Change [2, 10]: −0.352%
Weight Change [2, 11]: 8.801%
initial weight loss from ambient conditions to 5% RH ([2]; moisture sorption/desorption): approximately 0.4%
weight gain between 5% and 95% RH ([2]; moisture sorption/desorption): 9.2%

N#Cc1ccccc1Cn1c(N2CCC[C@@H](N)C2)ncc(F)c1=O [amorphous Form 1, tartrate salt of 2-[2-(3-(R)-amino-piperidin-1-yl)-5-fluoro-6-oxo-6H-pyrimidin-1-ylmethyl]-benzonitrile]
solid form of post moisture sorption/desorption sample by XRPD [2]: tentatively identified as containing form A
Weight Change [2, 9]: 0.868%
Weight Change [2, 10]: −0.054%
Weight Change [2, 11]: 13.393%
initial weight gain from ambient conditions to 5% RH ([2]; moisture sorption/desorption): approximately 0.2%
weight gain between 5% and 95% RH ([2]; moisture sorption/desorption): 5.8%
weight gain between 5% and 95% RH ([2]; moisture sorption/desorption, listed as freeze dried Compound I): ~13.5%
XRPD Pattern after RH stress ([3]; 6% RH stress): Amorphous
XRPD Pattern after RH stress ([3]; 33% RH stress): Amorphous
XRPD Pattern after RH stress ([3]; 58% RH stress): Amorphous
XRPD Pattern after RH stress ([3]; 75% RH stress): Form B
XRPD Pattern after RH stress ([3]; 84% RH stress): Pattern F

N#Cc1ccccc1Cn1c(N2CCC[C@@H](N)C2)ncc(F)c1=O [amorphous Form 2, tartrate salt of 2-[2-(3-(R)-amino-piperidin-1-yl)-5-fluoro-6-oxo-6H-pyrimidin-1-ylmethyl]-benzonitrile]
Weight Change [2, 9]: 0.433%
Weight Change [2, 10]: 0.156%
Weight Change [2, 11]: 6.013%

Reference: patent US20070066636A1, “POLYMORPHS OF TARTRATE SALT OF 2-[2-(3-(R)-AMINO-PIPERIDIN-1-YL)-5-FLUORO-6-OXO-6H-PYRIMIDIN-1-YLMETHYL]-BENZONITRILE AND METHODS OF USE THEREFOR” (priority 2005, published 2007)
